Test results: patent publication EP1210346B1, “NEW ACTIVE MARINE ALKALOIDS” (Instituto Biomar S.A., priority 1999, dated 2001)

Legend:
[1] = test system: Gram-positive bacteria (Staphylococcus and others); assay: Activity against Gram-positive bacteria; format: cell-based
[2] = test system: HT-29 (monolayer culture of a human colon carcinoma); assay: Antitumour screening, growth inhibition of HT-29 cells (adapted Bergeron method, Crystal Violet staining); format: cell-based; settings: 72 h, three days of incubation at 37°C, approximate IC50, duplicate
Method: (§1) Cells were maintained in logarithmic phase of growth in Eagle's Minimum Essential Medium, with Earle's Balanced Salts, with 2.0 mM L-glutamine, with non-essential amino acids, without sodium bicarbonate (EMEM/neaa); supplemented with 10% Fetal Calf Serum (FCS), 10^-2 M sodium bicarbonate and 0.1 g/l penicillin-G + streptomycin sulfate.
(§2) A screening procedure has been carried out to determine and compare the antitumour activity of these compounds, using an adapted form of the method described by Bergeron et al (Raymond J Bergeron, Paul F Cavanaugh, Jr, Steven J Kline, Robert G Hughes, Jr, Gary T Elliot and Carl W Porter. Antineoplastic and antiherpetic activity of spermidine catecholamide iron chelators. Biochem. Bioph. Res. Comm. 1984, 121, 848-854). The antitumour cells employed were P-388 (suspension culture of a lymphoid neoplasm from DBA/2 mouse), A-549 (monolayer culture of a human lung carcinoma), HT-29 (monolayer culture of a human colon carcinoma) and MEL-28 (monolayer culture of a human melanoma).
(§3) A-549, HT-29 and MEL-28 cells were seeded into 16 mm wells at 2 x 10^4 cells per well in 1 ml aliquots of MEM 10FCS containing the indicated concentration of drug. […] An approximately IC50 was determined by comparing the growth in wells with drug to the growth in wells control.

[3] = Stability in acid and basic media
[4] = test system: MEL-28 (monolayer culture of a human melanoma); assay: Antitumour screening, growth inhibition of MEL-28 cells (adapted Bergeron method, Crystal Violet staining); format: cell-based; settings: SK-MEL-28, 72 h, three days of incubation at 37°C, approximate IC50, duplicate
Method: as §1, §2, §3

[5] = test system: P-388 (suspension culture of a lymphoid neoplasm from DBA/2 mouse); assay: Antitumour screening, growth inhibition of P-388 cells (adapted Bergeron method); format: cell-based; settings: P388, 72 h, three days of incubation at 37°C, approximate IC50, duplicate
Method: as §1, §2
P-388 cells were seeded into 16 mm wells at 1 x 10^4 cells per well in 1 ml aliquots of MEM SFCS containing the indicated concentration of drug. A separate set of cultures without drug was seeded as control growth to ensure that cells remained in exponential phase of growth. All determinations were carried out in duplicate. […]

[6] = test system: A-549 (monolayer culture of a human lung carcinoma); assay: Antitumour screening, growth inhibition of A-549 cells (adapted Bergeron method, Crystal Violet staining); format: cell-based; settings: A549, 72 h, three days of incubation at 37°C, approximate IC50, duplicate
Method: as §1, §2, §3

COC1=C(C)C(=O)C2=C(C1=O)C1C3CC4=C(C(=O)C(OC)=C(C)C4=O)C(COC(C)=O)N3C(O)C(C2)N1C (stereo not drawn) [Jorumycin]
activity against Gram-positive bacteria [1]: showed also activity | IC50 [2]: 20 nM | stability [3]: highly unstable | IC50 [4]: 20 nM | IC50 [5]: 20 nM | IC50 [6]: 20 nM
